Test results as given in ChEMBL document CHEMBL5729382, “Inhibitors of cysteine proteases and methods of use thereof” (2022).

Assay: Evaluation of Antiviral Activity of Compounds Against Human Coronavirus (HCov) 229E: Compounds were assayed using standard methods against multiple coronaviral strains, including HCoV 229E and OC43 strains. […] The antiviral activity of compounds was calculated based on the protection of the virus-induced CPE at each concentration normalized by the virus control.

| Structure (SMILES) | IC50 |
| --- | --- |
| N#CC1(NC(=O)[C@@H](CC2CC2)NC(=O)OCc2ccccc2)C[C@H]2CC[C@@H]1[C@H]1C(=O)NC(=O)[C@@H]21 (single isomer, unassigned; isomer 1) | > 30 µM |
| COc1cccc2[nH]c(C(=O)N[C@H](CC3CC3)C(=O)N[C@@]3(C#N)CC4CCC3[C@H]3C(=O)NC(=O)[C@@H]43)cc12 (single isomer, unassigned; isomer 1) | > 30 µM |
